# Data taken from ChEMBL document CHEMBL5096150, “Development and Therapeutic Potential of NUAKs Inhibitors” (J Med Chem, 2021).
# How the values were obtained:
# [1] = target: T1, NUAK family SNF1-like kinase 1 (Homo sapiens, UniProt O60285); assay: Inhibition of N-terminal GST-tagged wild type human NUAK1 expressed in Escherichia coli DH5alpha incubated for 30 mins in presence of gamma-[32P]ATP by cerenkov counting analysis
# T1 sequence (O60285 whole entry): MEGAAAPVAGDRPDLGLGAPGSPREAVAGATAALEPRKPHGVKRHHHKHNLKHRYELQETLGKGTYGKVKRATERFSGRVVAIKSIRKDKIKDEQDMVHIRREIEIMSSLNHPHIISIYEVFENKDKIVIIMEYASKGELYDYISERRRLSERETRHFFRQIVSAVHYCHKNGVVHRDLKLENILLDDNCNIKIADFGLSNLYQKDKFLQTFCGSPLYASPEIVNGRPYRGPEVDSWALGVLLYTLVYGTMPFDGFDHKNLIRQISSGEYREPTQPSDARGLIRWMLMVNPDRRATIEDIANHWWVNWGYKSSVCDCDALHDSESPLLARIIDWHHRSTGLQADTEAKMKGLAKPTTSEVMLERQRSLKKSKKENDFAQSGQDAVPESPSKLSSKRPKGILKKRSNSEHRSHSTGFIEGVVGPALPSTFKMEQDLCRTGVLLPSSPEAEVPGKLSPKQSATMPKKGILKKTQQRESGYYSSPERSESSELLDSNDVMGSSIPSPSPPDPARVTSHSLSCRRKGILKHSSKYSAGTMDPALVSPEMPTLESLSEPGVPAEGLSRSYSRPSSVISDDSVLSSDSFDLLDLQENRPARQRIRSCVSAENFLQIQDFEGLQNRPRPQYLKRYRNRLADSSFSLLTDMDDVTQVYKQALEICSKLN
# [2] = target: T1, NUAK family SNF1-like kinase 1; assay: Inhibition of NUAK1 (unknown origin)
# [3] = target: T1, NUAK family SNF1-like kinase 1; assay: Inhibition of NUAK1 in HEK293 cells assessed as effect on MYPT1 phosphorylation at Ser445 incubated for 3 mins by immunoblotting analysis; format: cell-based
# [4] = target: Aurora kinase B (Homo sapiens, UniProt Q96GD4); assay: Inhibition of Aurora B (unknown origin)
# [5] = target: T2, Aurora kinase C (Homo sapiens, UniProt Q9UQB9); assay: Inhibition of Aurora C (unknown origin)
# T2 sequence (Q9UQB9 whole entry): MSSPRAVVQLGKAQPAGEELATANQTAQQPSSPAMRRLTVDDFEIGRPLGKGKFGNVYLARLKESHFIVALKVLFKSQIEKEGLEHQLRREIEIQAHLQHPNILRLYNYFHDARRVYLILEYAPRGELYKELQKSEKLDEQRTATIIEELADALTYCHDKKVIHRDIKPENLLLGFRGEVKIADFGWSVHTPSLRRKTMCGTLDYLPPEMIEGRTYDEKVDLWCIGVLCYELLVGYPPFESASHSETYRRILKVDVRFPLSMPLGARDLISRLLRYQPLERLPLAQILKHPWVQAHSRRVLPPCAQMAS
# [6] = target: T3, NUAK family SNF1-like kinase 1 (Homo sapiens) (UniProt O60285); assay: Inhibition of NUAK1 (unknown origin) at 1 uM relative to control
# T3 sequence (whole entry): T1 sequence (O60285 whole entry)
# [7] = target: T3, NUAK family SNF1-like kinase 1 (Homo sapiens); assay: Inhibition of NUAK1 (unknown origin) at 0.10 uM relative to control; details: dose 0.1 µM
# [8] = target: T3, NUAK family SNF1-like kinase 1 (Homo sapiens); assay: Inhibition of NUAK1 (unknown origin) at 0.01 uM relative to control
# [9] = target: T4, NUAK family SNF1-like kinase 2 (Homo sapiens, UniProt Q9H093); assay: Inhibition of NUAK2 (unknown origin)
# T4 sequence (Q9H093 whole entry): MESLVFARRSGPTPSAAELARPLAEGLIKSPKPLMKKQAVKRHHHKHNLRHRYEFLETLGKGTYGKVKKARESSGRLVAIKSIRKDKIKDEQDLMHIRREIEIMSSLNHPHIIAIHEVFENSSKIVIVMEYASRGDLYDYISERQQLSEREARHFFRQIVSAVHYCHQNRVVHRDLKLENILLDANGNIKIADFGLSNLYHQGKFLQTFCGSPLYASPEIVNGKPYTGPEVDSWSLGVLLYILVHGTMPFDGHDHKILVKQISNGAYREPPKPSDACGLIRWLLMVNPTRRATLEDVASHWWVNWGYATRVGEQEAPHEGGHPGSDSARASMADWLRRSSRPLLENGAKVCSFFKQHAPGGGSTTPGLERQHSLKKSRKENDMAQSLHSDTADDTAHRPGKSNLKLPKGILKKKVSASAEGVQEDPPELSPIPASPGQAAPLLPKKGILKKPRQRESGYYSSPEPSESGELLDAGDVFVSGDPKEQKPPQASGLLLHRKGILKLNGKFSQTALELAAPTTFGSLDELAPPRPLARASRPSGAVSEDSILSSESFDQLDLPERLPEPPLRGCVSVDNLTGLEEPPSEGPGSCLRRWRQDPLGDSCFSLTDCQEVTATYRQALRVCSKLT
# [10] = target: T5, Insulin-like growth factor 1 receptor (Homo sapiens, UniProt P08069); assay: Inhibition of human IGF1R expressed in mouse IGF1R knockout MEF cells; format: cell-based
# [11] = target: T6, Insulin receptor (Homo sapiens, UniProt P06213); assay: Binding affinity to human InsR expressed in mouse IGF1R knockout MEF cells assessed as dissociation constant; format: cell-based
# [12] = target: T5, Insulin-like growth factor 1 receptor; assay: Binding affinity to human IGF1R expressed in mouse IGF1R knockout MEF cells assessed as dissociation constant; format: cell-based
# [13] = target: T6, Insulin receptor; assay: Inhibition of human InsR expressed in mouse IGF1R knockout MEF cells; format: cell-based
# [14] = target: Cyclin-dependent kinase 4 (Homo sapiens) (UniProt P11802); assay: Inhibition of CDK4 (unknown origin)
# [15] = target: Proto-oncogene tyrosine-protein kinase receptor Ret (Homo sapiens, UniProt P07949); assay: Inhibition of RET (unknown origin)
# [16] = Inhibition of N-terminal GST-tagged human NUAK1 A195T mutant expressed in Escherichia coli DH5alpha incubated for 30 mins in presence of gamma-[32P]ATP by cerenkov counting analysis
# T5 sequence (P08069 31-736 limits assumed): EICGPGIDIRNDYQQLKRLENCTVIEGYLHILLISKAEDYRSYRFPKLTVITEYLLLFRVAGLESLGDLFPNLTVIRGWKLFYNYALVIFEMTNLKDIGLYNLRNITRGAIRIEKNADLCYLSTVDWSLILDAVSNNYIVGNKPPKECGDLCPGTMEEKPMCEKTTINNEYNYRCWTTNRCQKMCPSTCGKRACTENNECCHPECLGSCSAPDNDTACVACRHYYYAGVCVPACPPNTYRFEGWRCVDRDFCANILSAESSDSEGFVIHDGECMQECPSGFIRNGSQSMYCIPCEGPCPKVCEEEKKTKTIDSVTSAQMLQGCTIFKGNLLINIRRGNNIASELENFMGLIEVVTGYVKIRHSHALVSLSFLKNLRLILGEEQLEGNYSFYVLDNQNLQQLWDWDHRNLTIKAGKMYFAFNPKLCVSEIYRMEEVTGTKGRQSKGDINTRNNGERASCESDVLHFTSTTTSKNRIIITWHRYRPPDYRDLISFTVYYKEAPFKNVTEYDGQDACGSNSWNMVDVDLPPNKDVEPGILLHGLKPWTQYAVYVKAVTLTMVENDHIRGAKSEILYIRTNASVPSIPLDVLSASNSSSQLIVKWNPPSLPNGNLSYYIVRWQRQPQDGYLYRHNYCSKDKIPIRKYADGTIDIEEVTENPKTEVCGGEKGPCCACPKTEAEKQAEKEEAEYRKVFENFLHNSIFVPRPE
# T5 sequence (P08069 741-1367 limits assumed): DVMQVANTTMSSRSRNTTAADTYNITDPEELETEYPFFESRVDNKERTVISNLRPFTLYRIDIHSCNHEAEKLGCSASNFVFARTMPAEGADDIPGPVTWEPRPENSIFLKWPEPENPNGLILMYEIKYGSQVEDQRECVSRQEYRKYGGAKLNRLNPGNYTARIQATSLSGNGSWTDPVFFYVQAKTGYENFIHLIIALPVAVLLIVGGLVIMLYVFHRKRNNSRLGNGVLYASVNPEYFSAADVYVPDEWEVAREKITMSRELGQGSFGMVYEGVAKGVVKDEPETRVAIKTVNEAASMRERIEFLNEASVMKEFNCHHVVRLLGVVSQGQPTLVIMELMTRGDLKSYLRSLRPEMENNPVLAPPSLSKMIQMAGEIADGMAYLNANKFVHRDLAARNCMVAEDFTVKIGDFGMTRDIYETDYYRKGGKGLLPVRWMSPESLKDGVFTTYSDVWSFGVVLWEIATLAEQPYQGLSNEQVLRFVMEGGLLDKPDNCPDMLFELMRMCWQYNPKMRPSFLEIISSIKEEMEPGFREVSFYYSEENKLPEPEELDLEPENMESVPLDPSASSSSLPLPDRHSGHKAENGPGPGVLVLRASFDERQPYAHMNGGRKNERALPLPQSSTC
# T6 sequence (P06213 28-758 limits assumed): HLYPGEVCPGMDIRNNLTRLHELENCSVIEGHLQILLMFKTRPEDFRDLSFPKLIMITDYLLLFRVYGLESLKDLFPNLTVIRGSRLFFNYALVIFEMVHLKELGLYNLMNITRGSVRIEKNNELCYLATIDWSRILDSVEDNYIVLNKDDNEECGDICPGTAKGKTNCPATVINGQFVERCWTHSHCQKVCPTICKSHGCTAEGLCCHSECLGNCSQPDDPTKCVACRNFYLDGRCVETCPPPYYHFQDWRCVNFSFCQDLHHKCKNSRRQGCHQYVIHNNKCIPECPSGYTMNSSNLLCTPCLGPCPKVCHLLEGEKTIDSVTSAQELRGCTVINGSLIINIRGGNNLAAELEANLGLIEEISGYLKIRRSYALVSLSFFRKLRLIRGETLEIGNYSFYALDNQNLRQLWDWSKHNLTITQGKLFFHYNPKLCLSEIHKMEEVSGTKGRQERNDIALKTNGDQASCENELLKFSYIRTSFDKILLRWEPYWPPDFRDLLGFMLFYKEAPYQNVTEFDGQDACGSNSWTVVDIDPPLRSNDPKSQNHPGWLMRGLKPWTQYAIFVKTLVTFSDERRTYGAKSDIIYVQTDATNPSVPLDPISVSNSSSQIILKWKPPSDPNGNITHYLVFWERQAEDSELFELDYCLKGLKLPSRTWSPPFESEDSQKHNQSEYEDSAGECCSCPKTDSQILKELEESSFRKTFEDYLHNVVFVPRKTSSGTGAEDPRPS
# T6 sequence (P06213 763-1382 limits assumed): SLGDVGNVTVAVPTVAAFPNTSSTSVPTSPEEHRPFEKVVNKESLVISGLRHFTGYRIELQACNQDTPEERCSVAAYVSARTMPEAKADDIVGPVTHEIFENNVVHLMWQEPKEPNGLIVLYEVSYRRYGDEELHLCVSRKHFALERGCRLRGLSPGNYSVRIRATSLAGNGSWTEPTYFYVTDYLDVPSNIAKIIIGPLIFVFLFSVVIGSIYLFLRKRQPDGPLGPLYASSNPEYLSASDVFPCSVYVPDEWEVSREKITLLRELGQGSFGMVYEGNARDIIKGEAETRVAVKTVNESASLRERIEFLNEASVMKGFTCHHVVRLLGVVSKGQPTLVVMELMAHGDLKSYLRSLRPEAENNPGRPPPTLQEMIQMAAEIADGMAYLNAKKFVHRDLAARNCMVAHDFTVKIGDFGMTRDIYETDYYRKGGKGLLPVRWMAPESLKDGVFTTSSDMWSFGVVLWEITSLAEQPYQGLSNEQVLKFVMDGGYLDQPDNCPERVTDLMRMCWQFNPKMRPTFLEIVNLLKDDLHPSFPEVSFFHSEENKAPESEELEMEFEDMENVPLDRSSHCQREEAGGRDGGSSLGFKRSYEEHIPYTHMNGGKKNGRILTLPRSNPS
# Sequence of Aurora kinase B (Q96GD4 whole entry): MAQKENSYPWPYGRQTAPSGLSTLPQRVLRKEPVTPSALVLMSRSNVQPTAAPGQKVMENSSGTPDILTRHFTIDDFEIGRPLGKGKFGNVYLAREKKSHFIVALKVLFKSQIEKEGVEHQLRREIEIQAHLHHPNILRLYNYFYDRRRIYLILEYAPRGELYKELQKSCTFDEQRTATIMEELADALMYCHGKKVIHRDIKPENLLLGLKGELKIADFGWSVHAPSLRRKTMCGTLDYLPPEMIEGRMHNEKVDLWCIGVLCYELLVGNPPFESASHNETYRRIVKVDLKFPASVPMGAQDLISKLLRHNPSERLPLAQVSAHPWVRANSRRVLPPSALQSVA
# Sequence of Cyclin-dependent kinase 4 (Homo sapiens) (P11802 whole entry): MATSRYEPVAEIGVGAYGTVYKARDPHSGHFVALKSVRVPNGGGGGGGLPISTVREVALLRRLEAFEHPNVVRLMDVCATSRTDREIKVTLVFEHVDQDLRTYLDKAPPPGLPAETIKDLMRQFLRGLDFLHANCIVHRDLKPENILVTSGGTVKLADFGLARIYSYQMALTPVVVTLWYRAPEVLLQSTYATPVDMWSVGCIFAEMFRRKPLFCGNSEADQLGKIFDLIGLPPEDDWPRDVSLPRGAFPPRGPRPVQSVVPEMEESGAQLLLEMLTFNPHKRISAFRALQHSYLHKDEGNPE
# Sequence of Proto-oncogene tyrosine-protein kinase receptor Ret (P07949 whole entry): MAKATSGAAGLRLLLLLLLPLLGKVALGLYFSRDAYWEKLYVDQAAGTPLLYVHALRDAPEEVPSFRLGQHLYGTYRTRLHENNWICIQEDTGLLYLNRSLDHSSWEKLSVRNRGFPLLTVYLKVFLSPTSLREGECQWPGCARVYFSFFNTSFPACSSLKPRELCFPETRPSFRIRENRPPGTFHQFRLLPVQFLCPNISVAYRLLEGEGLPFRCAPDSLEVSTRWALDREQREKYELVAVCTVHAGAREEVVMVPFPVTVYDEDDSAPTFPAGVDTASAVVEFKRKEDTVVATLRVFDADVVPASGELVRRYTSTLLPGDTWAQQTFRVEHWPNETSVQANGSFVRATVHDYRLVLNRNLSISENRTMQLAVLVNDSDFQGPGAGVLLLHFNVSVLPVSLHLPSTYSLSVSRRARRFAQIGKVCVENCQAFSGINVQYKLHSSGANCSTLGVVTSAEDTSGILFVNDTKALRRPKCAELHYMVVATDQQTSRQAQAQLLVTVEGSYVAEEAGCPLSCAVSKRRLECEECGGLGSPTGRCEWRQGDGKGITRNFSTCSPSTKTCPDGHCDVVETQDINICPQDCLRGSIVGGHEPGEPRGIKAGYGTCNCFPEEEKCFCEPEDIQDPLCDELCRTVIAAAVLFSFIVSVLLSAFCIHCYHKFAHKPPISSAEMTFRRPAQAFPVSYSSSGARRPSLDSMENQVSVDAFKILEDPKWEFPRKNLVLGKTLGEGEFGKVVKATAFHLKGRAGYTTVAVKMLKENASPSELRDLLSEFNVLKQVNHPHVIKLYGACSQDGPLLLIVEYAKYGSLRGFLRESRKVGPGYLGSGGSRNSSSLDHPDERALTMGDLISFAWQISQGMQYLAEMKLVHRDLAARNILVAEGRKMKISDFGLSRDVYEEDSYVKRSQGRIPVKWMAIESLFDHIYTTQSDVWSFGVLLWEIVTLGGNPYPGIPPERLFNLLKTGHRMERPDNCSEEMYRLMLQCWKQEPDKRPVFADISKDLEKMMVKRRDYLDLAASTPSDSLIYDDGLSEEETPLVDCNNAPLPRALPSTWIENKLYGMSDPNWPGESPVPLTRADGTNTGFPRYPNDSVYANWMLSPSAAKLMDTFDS
smiles,measurement,setting,value
C=CC(=O)Nc1cccc(Oc2nc(Nc3ccc(N4CCN(C)CC4)cc3OC)ncc2Cl)c1,IC50,[1],25 nM
Fc1ccc(Cn2cnc3cc(Cl)c(Nc4cc(C5CC5)[nH]n4)nc32)cc1,IC50,[2],34.9 nM
Cc1cc(Nc2ncc3c(n2)N(C)c2ccccc2C(=O)N3C)ccc1C(=O)N1CCN(C)CC1,IC50,[1],6 nM
CN1C(=O)c2cc3ccccc3cc2N(C)c2nc(Nc3cnn(C4CCNCC4)c3)ncc21,IC50,[3],10000 nM
same,IC50,[4],54 nM
same,IC50,[5],120 nM
Cc1cc(Nc2nc(NC(C)c3ccc(F)cc3)c(C#N)cc2F)n[nH]1 (stereo not drawn),inhibition,[6],3%
same,inhibition,[7],6%
same,inhibition,[8],35%
CC(C)(C)NS(=O)(=O)c1cccc(Nc2nc(Nc3cnn(C4CCNCC4)c3)ncc2Cl)c1,IC50,[1],67 nM
C[C@@H](O)[C@@H](C)Oc1nc(Nc2ccc([S@](=N)(=O)C3CC3)cc2)ncc1C(F)(F)F [RONICICLIB],IC50,[2],< 10 nM
CCCC(=O)Nc1cccc(Oc2nc(Nc3ccc(N4CCN(C)CC4)cc3OC)ncc2I)c1,IC50,[9],126 nM
Cc1nc(Nc2cnn(C3CCNCC3)c2)nc2c1N(C)C(=O)c1ccccc1N2C,IC50,[1],17 nM
COCCN1CCN(CCn2ccc(Nc3ncc4c(n3)C(C)Cc3nn(C)c(-c5ccccc5)c3-4)n2)CC1 (stereo not drawn),IC50,[10],1 nM
same,Kd,[11],12 nM
same,Kd,[12],9 nM
same,IC50,[13],1 nM
same,IC50,[2],411 nM
O=C(NCCCNc1nc(Nc2cccc(CN3CCOCC3)c2)ncc1C1CC1)C1CCC1,IC50,[9],2600 nM
O=C(NCCCNc1nc(Nc2cccc(NC(=O)N3CCCC3)c2)ncc1I)c1cccs1 [BX-795],IC50,[2],5 nM
CCC(=O)Nc1cccc(Oc2nc(Nc3ccc(N4CCN(C)CC4)cc3OC)ncc2Cl)c1,IC50,[1],1.5 nM
COc1cccc(OCCCN)c1-c1cc(Nc2cnc(C#N)cn2)n[nH]1 [PREXASERTIB],IC50,[2],64 nM
Cc1ccc2c(c1)C(=O)N(C)c1cnc(Nc3cnn(C4CCNCC4)c3)nc1N2C,IC50,[1],7 nM
CN1CCN(c2ccc(Nc3ncc4cc(C#N)c(=O)n(C5CCCC5)c4n3)cc2)CC1 [NARAZACICLIB],IC50,[14],3.9 nM
same,IC50,[15],9.2 nM
Cc1ccc2c(c1)C(=O)N(C)c1cnc(Nc3ccc4c(c3)NC(=O)CC4)nc1N2C,IC50,[1],15 nM
same,IC50,[16],2000 nM
C=CC(=O)Nc1cccc(Oc2nc(Nc3ccc(N4CCN(C)CC4)cc3)nc3[nH]cnc23)c1,IC50,[1],33 nM
